Laboratory results taken from US8355877B2, “System for predicting responsiveness to a pharmaceutical therapy for obesity” (priority 2007, dated 2013).

Legend:
[1] = tested on: DIO-LE rats maintained on a high fat chow; experiment: Cross therapeutic target rat study: reduction of TRL V6 concentration (NMR LipoProfile) after an acute dose; format: in vivo
Description: (§1) As a typical example, whole blood samples are collected into 2 ml EDTA blood collection tubes, inverted several times to mix well, and placed on ice. The samples are then centrifuged at approximately 3000 rpm for 10-15 minutes at 4° C. Upon completion of centrifugation, the tube is placed on ice and the plasma is drawn off. The plasma is place into a polypropylene tube and kept at 4° C. until analysis. Samples may be analyzed at any time up to about 4 days after collection. Samples are analyzed for TRL V6 response, as for example by NMR plasma lipoprotein analysis, as for example, the NMR LipoProfile®, the NMR LipoProfile®-II or the NMR LipoProfile®-III lipoprotein tests provided by LipoScience, Inc. of Raleigh, N.C.
(§2) NMR spectral data is analyzed as described in Jeyarajah et al., supra. Lipoprotein subclass concentrations are reported in lipid mass concentration units (TRL subclasses in units of mg/dL triglyceride) or, alternatively, in particle concentration units of nmol/L (nanomoles of particles per liter). The source information (NMR signal amplitude of each subclass) is transformed into these mass or particle concentration units by the analysis software, using a set of conversion factors obtained from chemical lipid and NMR analyses of isolated chylomicron, VLDL, LDL, and HDL subclass standards of normal lipid composition.
The ability of investigational weight loss pharmaceutical agents to reduce the TRL V6 concentration in rats is shown with three compounds targeting different mechanisms of action including a known potent and selective 5-HT2C receptor agonist, a known potent and selective CB-1 receptor antagonist/inverse agonist, and a potent SNDRI (sibutramine). Each of these compounds are known to induce weight loss in rats and thus the biomarker of reduction in TRL V6 concentration correlates to the investigational weight loss pharmaceutical agents' ability to induce weight loss. Conversely, an opiate antagonist, (naltrexone) which is known to be ineffective in inducing weight loss in rats or in overweight and obese human subjects (Malcolm R et al., Int. J. Obes. 1985; 9(5):347-53), is shown to not reduce the TRL V6 concentration in rats, again correlating the biomarker of reduction in TRL V6 concentration to the investigational weight loss pharmaceutical agents' ability to induce weight loss.
DIO-LE rats maintained on a high fat chow are administered either a vehicle dose or an acute dose of test compound. At specified time points post dose, animals are sacrificed and blood is collected in blood sample tubes containing EDTA and processed essentially as described above. Samples are analyzed by NMR LipoProfile® lipoprotein sub-particle test with report of all particle subtypes (specifically the TRL V6 concentration or particle number).

[2] = tested on: hypertriglyceridemic and overweight and obese but otherwise healthy subjects; experiment: Human study with a SNDRI (sibutramine): TRL response to fat load, single-blind crossover vs placebo, NMR LipoProfile III; format: in vivo
Description: Note that where TRL V6 response can be equated with the response of a combination of subtypes, it is because the magnitude of the change in signal, which is due to the change of TRL V6 signal, is sufficiently large compared to the base line signal, to be a significant difference (i.e. the signal from TRL V6 in the base line signal dominates the combined signal so that a change in TRL V6 is reliably detected).
as §1, §2
A SNDRI (sibutramine) known to be able to induce weight loss in humans is tested to correlate its ability to reduce TRL V6 response plasma concentrations and V-TRL response in humans in an exploratory biomarker study employing a single-blind, crossover design, comparing sibutramine and placebo in hypertriglyceridemic and overweight and obese but otherwise healthy subjects.
Three cohorts containing 6 subjects each, undergo three periods during the study. Subjects are fasted overnight and two fasting blood draws are obtained, followed by breakfast at approximately 07:00 hours. Placebo or sibutramine is administered at approximately 10:00 hours. Blood sampling is begun approximately 1 hr. after the start of breakfast and continues at hourly intervals for 7 hr., and then every 2 hr. for the next 10 hr. A lunch according to Example fat load 2 is served at approximately 12:00 hours (approximately 60 to 65 g of fat). No other food is permitted until 12 hr. post fat load administration. Subjects are released after the last blood sampling for a 4 to 8-day washout period before return for the second testing period of the study. After the washout period, subjects are again fasted overnight. The procedures are then repeated as in the first testing period of the study except that each subject crosses over to receive the alternate treatment, sibutramine or placebo. Blood samples are collected, processed and analyzed essentially as described in Example 1 above.
TRL V6 responses and V-TRL responses are observed during the period from 5 to 11 hr. post fat load. […] In most subjects, the administration of sibutramine reduced the magnitude of the TRL V6 response and V-TRL response compared to their placebo-treated responses. Thus the reduction of the TRL V6 response and V-TRL response induced by the SNDRI correlates with the SNDRI known ability to induce weight loss in humans.

[3] = 5 hr. post dose, CB-1 antagonist 0.3 mg/kg, SNDRI 3 mg/kg, rats
[4] = rats, 5-HT2C agonist 10 mg/kg, CB-1 antagonist 0.3 mg/kg, SNDRI 3 mg/kg, naltrexone 10 mg/kg oral
[5] = AUC 5-11 hr. post fat load vs placebo, humans
[6] = AUC from lipid load vs placebo, Table 2

For `CC(C)CC(N(C)C)C1(c2ccc(Cl)cc2)CCC1` (stereo not drawn) [Sibutramine, sibutramine], the “reduction of TRL V6 concentration” value ([1]; 2 hr. post dose, 3 mg/kg, rats) was “about 78%”, the “reduction of circulating concentration of TRL V6” value ([1]; 2 hr. post dose, 5-HT2C agonist 10 mg/kg, SNDRI 3 mg/kg, naltrexone 10 mg/kg oral, rats) was “about 78%” and the “reduction of TRL V6 concentration” value [1, 3] was “about 78%”. The “reduction of circulating concentration of TRL V6” value [1, 3] was “about 78%”, the “Reduction in TRL V6 Response, T1-(ie 2 hrs)” value ([1]; T1 (ie 2 hrs) post dose, dose per compound in column Dose (10, 0.3, 3, 10 mg/kg), DIO-LE rats) was 78% and the “Reduction in TRL V6 Response, T2-(ie 5 hrs)” value ([1]; T2 (ie 5 hrs) post dose, dose per compound in column Dose, DIO-LE rats) was 78%. For the same molecule, the “Reduction in TRL V6 Response, T3-(ie 18 hrs)” value ([1]; T3 (ie 18 hrs) post dose, dose per compound in column Dose, DIO-LE rats) was 0%, the “time post dose at which TRL V6 plasma concentration returns to baseline” value [1, 4] was ≤ 18 h and the “change in mean V-TRL response” value [2, 5] was “statistically significant decrease”. For the same molecule, the “change in the plasma concentrations of TRL V1, V2, V3, V4, or V5 subtypes” value [2, 5] was “does not show a significant change”, the “decrease in the TRL V6 response (AUC) vs placebo” value ([2]; AUC 5-11 hr. post fat load, mixed effects model, statistically significant, humans) was “about 28%” and the “change in TRL V6+TRL V5” value [2, 6] was “did not produce a significant change”. The “change in TRL V6+TRL V5+chylomicrons” value [2, 6] was “did not produce a significant change”, the “change in TRL V6+chylomicrons” value [2, 6] was “showed a significant change” and the “effect on TRL V6 response” value [2, 6] was “reduced the TRL V6 response”. The “Sibutramine/Placebo Ratio of AUC, TRL V5” value ([2]; TRL V5, AUC 5-11 hr. from lipid load, P 0.474) was 1.10, the “Geometric LS Mean of AUC, TRL V5” value ([2]; TRL V5, AUC 5-11 hr. time points from lipid load, human plasma, NMR) was 222.34 and the “Sibutramine/Placebo Ratio of AUC, TRL V6 + Chy” value ([2]; TRL V6 + Chy, AUC 5-11 hr. from lipid load, P 0.004) was 0.81. For the same molecule, the “Geometric LS Mean of AUC, TRL V6 + Chy” value ([2]; TRL V6 + Chy, AUC 5-11 hr. time points from lipid load, human plasma, NMR) was 205.0, the “Sibutramine/Placebo Ratio of AUC, TRL V6 + TRL V5” value ([2]; TRL V6 + TRL V5, AUC 5-11 hr. from lipid load, P 0.091) was 0.88 and the “Geometric LS Mean of AUC, TRL V6 + TRL V5” value ([2]; TRL V6 + TRL V5, AUC 5-11 hr. time points from lipid load, human plasma, NMR) was 364.08. The “Sibutramine/Placebo Ratio of AUC, TRL V6 + V5 + Chy” value ([2]; TRL V6 + V5 + Chy, AUC 5-11 hr. from lipid load, P 0.110) was 0.89, the “Geometric LS Mean of AUC, TRL V6 + V5 + Chy” value ([2]; TRL V6 + V5 + Chy, AUC 5-11 hr. time points from lipid load, human plasma, NMR) was 458.04 and the “Sibutramine/Placebo Ratio of AUC, TRL V6” value ([2]; TRL V6, AUC 5-11 hr. from lipid load, P 0.001) was 0.73. For the same molecule, the “Geometric LS Mean of AUC, TRL V6” value ([2]; TRL V6, AUC 5-11 hr. time points from lipid load, human plasma, NMR) was 119.35, the “Sibutramine/Placebo Ratio of AUC, Chy” value ([2]; chylomicrons, AUC 5-11 hr. from lipid load, P 0.721) was 0.98 and the “Geometric LS Mean of AUC, Chy” value ([2]; chylomicrons, AUC 5-11 hr. time points from lipid load, human plasma, NMR) was 81.11.

In the case of `O=C1CC[C@@]2(O)[C@H]3Cc4ccc(O)c5c4[C@@]2(CCN3CC2CC2)[C@H]1O5` [Naltrexone, naltrexone], the “TRL V6 level versus baseline at 18 hr. post dose” value ([1]; 10 mg/kg oral, 18 hr. post dose, rats) is reported as “unchanged”, the “effect on circulating TRL V6 levels” value ([1]; 10 mg/kg orally administrated dose, rats) is reported as “minimal effect” and the “time post dose at which TRL V6 plasma concentration returns to baseline” value [1, 4] is reported as 5 h.
